For the test, the target named is S1P5 (Homo sapiens, UniProt Q9H228). Put plainly: [35S]-GTPγS binding assay (S1P5 agonism), CHO cell membranes. Format: biochemical. Particulars: membranes of CHO cells expressing recombinant S1P5 receptors, measure of S1P5 agonism. As for the experimental part:
CHO cells expressing recombinant S1P5 receptors were cultured in 500 cm^2 culture trays and, once confluent, rinsed and detached with cell-lifting buffer (10 mM HEPES, 154 mM NaCl, 6.85 mM EDTA, pH 7.4). Cells were then pelleted by centrifugation, resuspended, and homogenized in membrane preparation buffer (10 mM HEPES and 10 mM EDTA, pH 7.4) using a Polytron PT 1200E homogenizer (Kinematica, Luzern, Switzerland). Cellular proteins were pelleted by centrifugation at 48,000×g at 4° C. for 30 minutes. The resulting supernatant was discarded, and the pellet was re-suspended again in membrane preparation buffer, homogenized for a second time, and then centrifuged again as described above. The final cellular protein pellet was suspended in ice cold resuspension buffer (10 mM HEPES and 0.1 mM EDTA, pH 7.4), divided into aliquots, and stored at −80° C. until use.
Functional binding assays for [^35S]-GTPγS were performed in 96-well non-binding surface plates with a final volume of 200 μL. The test compounds were serially diluted in DMSO and added to assay plates using a Tecan D300E digital printer with a total volume of […]. The control sphingosine-1-phosphate (S1P) was prepared separately by preparing a 400 μM stock solution from a 100 nmol pellet of S1P in 10 mM Na2CO3 with 2% […]. The serial dilution of S1P was done using complete assay buffer (20 mM HEPES, 10 mM MgCl2, 100 mM NaCl, 1 mM EDTA, 0.1% fatty acid free bovine serum albumin (BSA), and 30 μg/mL saponin, pH 7.4) and transferred to wells already containing 0.4 μL DMSO. All the wells were then loaded to a total volume of 40 μL of complete assay buffer, except the non-specific binding (NSB) wells. For NSB wells, 40 μL/well of 50 μM GTPγS (Sigma Aldrich, cat #G8634, St. Louis, MO) was added to wells containing 0.4 μL of DMSO. The assay was started by the addition of 120 μL/well of CHO-SlP receptor membrane solution containing 40 μg/mL of membrane protein, 16.67 μM guanosine diphosphate (GDP; Sigma Aldrich, cat #G7127, St. Louis, MO), and 2.5 mg/mL of WGA PVT SPA beads in complete buffer. Assay plates were then sealed and incubated at room temperature with gentle agitation for 30 minutes. Next, 40 µL/well of 1 nM of [^35S]-GTPγS (PerkinElmer, cat #NEG030X25OUC, Waltham, MA) in basic assay buffer (20 mM HEPES, 10 mM MgCl2, 100 mM NaCl, and 1 mM EDTA, pH7.4) was added to the assay plates to yield a final concentration of 200 pM and the plates were further incubated for 40 minutes at room temperature with gentle agitation. The assay was terminated by centrifugation of the plates at 1000 rpm for 3 minutes using an Eppendorf 5810R centrifuge (Eppendorf, Hamburg, Germany) and G protein bound radioactivity was quantitated using a MicroBeta2 microplate scintillation counter (PerkinElmer, Waltham, MA). As G protein bound radioactivity directly correlates to receptor activation and coupling to the G protein, this assay is a measure of S1P5 agonism.
A general note: GTPγS resists hydrolysis and so accumulates on activated G proteins.

This note sets out measurements from patent publication US20240376048A1 (Celgene Corporation, priority 2021, published 2024).

Molecules are shown by their SMILES.

The EC50 is the concentration needed to bring the measured effect to its halfway point.

Chain of S1P5 (Q9H228 whole entry, species assumed): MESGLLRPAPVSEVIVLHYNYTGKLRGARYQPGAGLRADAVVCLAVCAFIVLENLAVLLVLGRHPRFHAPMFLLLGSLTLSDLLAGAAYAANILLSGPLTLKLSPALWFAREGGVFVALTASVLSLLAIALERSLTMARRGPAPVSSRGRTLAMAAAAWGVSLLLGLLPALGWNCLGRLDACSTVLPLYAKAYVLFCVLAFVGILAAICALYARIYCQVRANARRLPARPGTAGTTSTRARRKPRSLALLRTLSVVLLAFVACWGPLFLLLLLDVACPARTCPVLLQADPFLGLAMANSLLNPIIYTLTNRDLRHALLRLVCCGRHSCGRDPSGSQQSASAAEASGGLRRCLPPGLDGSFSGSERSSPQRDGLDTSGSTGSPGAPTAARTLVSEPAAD

Turning to `CC1(C)CC(C(=O)O)CCN1C1CCc2cc(OCc3c(Cl)cccc3Cl)ccc21` (stereo not drawn) [Compound 28, 1-(5-((2,6-dichlorobenzyl)oxy)-2,3-dihydro-1H-inden-1-yl)-2,2-dimethylpiperidine-4-carboxylic acid], the EC50 lay in the range of 10 to 100 nM. Consider `CC1(C(=O)O)CCN(C2CCc3cc(OCc4c(Cl)cccc4Cl)ccc32)CC1` (stereo not drawn) [Compound 29, 1-(5-((2,6-dichlorobenzyl)oxy)-2,3-dihydro-1H-inden-1-yl)-4-methylpiperidine-4-carboxylic acid], for which the EC50 fell in the range of 10 to 100 nM.

In the case of `CC1CC(C(=O)O)CCN1C1CCc2cc(OCc3c(Cl)cccc3Cl)ccc21` (stereo not drawn) [Compound 30, 1-(5-((2,6-dichlorobenzyl)oxy)-2,3-dihydro-1H-inden-1-yl)-2-methylpiperidine-4-carboxylic acid], the EC50 was in the range of 10 to 100 nM.

On to `CC1CC(C(=O)O)CC(C)N1C1CCc2cc(OCc3c(Cl)cccc3Cl)ccc21` (stereo not drawn) [Compound 31, 1-(5-((2,6-dichlorobenzyl)oxy)-2,3-dihydro-1H-inden-1-yl)-2,6-dimethylpiperidine-4-carboxylic acid], for which the EC50 was in the range of 10 to 100 nM. With `O=C(O)C1CCN(C2CCc3cc(OCc4c(Cl)cccc4Cl)cc(F)c32)CC1` (stereo not drawn) [Compound 32, 1-(5-((2,6-dichlorobenzyl)oxy)-7-fluoro-2,3-dihydro-1H-inden-1-yl)piperidine-4-carboxylic acid], the EC50 was in the range of 1 to 10 nM.

For the compound `O=C(O)C1CCN(C2CCc3cc(OCc4c(Cl)cccc4Cl)c(F)cc32)CC1` (stereo not drawn) [Compound 33, 1-(5-((2,6-dichlorobenzyl)oxy)-6-fluoro-2,3-dihydro-1H-inden-1-yl)piperidine-4-carboxylic acid], the EC50 is 1 to 10 nM. Take `O=C(O)C1CCN(C2CCc3c2ccc(OCc2c(Cl)cccc2Cl)c3F)CC1` (stereo not drawn) [Compound 34, 1-(5-((2,6-dichlorobenzyl)oxy)-4-fluoro-2,3-dihydro-1H-inden-1-yl)piperidine-4-carboxylic acid]: the 50% effective concentration (EC50) was at most 1 nM.

As for `Cc1cc(OCc2c(Cl)cccc2Cl)cc2c1C(N1CCC(C(=O)O)CC1)CC2` (stereo not drawn) [Compound 35, 1-(5-((2,6-dichlorobenzyl)oxy)-7-methyl-2,3-dihydro-1H-inden-1-yl)piperidine-4-carboxylic acid], the concentration giving a half-maximal response (EC50) was at most 1 nM. As to `Cc1c(OCc2c(Cl)cccc2Cl)ccc2c1CCC2N1CCC(C(=O)O)CC1` (stereo not drawn) [Compound 36, 1-(5-((2,6-dichlorobenzyl)oxy)-4-methyl-2,3-dihydro-1H-inden-1-yl)piperidine-4-carboxylic acid], the concentration giving a half-maximal response (EC50) is at most 1 nM. For `Cc1cc2c(cc1OCc1c(Cl)cccc1Cl)CCC2N1CCC(C(=O)O)CC1` (stereo not drawn) [Compound 37, 1-(5-((2,6-dichlorobenzyl)oxy)-6-methyl-2,3-dihydro-1H-inden-1-yl)piperidine-4-carboxylic acid], the EC50 lay within 1 to 10 nM. Consider `CC1CC(N2CCC(C(=O)O)CC2)c2ccc(OCc3c(Cl)cccc3Cl)cc21` (stereo not drawn) [Compound 38, 1-(5-((2,6-dichlorobenzyl)oxy)-3-methyl-2,3-dihydro-1H-inden-1-yl)piperidine-4-carboxylic acid], for which the 50% effective concentration (EC50) was 1 to 10 nM. Consider `CC1(C)CC(N2CCC(C(=O)O)CC2)c2ccc(OCc3c(Cl)cccc3Cl)cc21` (stereo not drawn) [Compound 39], for which the concentration for a half-maximal effect (EC50) lay within 10 to 100 nM.
